In ChEMBL document CHEMBL1128849, “Synthesis and antibacterial activity of men 10700, a new penem antibiotic” (1995):
In brackets after ≈: the same amount, converted by molar mass.

Assays:
Aeromonas sp. = experiment: In vitro antibacterial activity against Aeromonas species.; format: functional
[1] = system: Acinetobacter calcoaceticus subsp. anitratus; experiment: In vitro antibacterial activity against Acinetobacter anitratus; format: functional
Bacteroides fragilis = experiment: In vitro antibacterial activity against Bacteroides fragilis; format: functional
Moraxella catarrhalis = experiment: In vitro antibacterial activity against Branhamella catarrhalis; format: functional
Clostridium perfringens = experiment: In vitro antibacterial activity against Clostridium perfringens; format: functional
Citrobacter freundii = experiment: In vitro antibacterial activity against Citrobacter freundii; format: functional
Enterococcus faecalis [2] = experiment: In vitro antibacterial activity against Enterococcus faecalis; format: functional
Enterococcus faecium = experiment: In vitro antibacterial activity against Enterococcus faecium; format: functional
Enterococcus faecalis [3] = experiment: In vitro antibacterial activity against Enterococcus faecalis ATCC 29212; format: functional
Escherichia coli [4] = experiment: In vitro antibacterial activity against Escherichia coli; format: functional
Escherichia coli [5] = experiment: In vitro antibacterial activity against Escherichia. coli ATCC 25922; format: functional
Escherichia coli [6] = experiment: In vitro antibacterial activity against Escherichia. coli DC2; format: functional
Escherichia coli [7] = experiment: In vitro antibacterial activity against Escherichia. coli L; format: functional
Escherichia coli [8] = experiment: In vitro antibacterial activity against Escherichia. coli SHV; format: functional
Escherichia coli [9] = experiment: In vitro antibacterial activity against Escherichia. coli TEM1; format: functional
Escherichia coli [10] = experiment: In vitro antibacterial activity against Escherichia. coli TEM2; format: functional
Klebsiella aerogenes = experiment: In vitro antibacterial activity against Enterobacter aerogenes; format: functional
Haemophilus influenzae = experiment: In vitro antibacterial activity against Haemophilus influenzae; format: functional
Klebsiella pneumoniae = experiment: In vitro antibacterial activity against Klebsiella pneumoniae; format: functional
Listeria monocytogenes = experiment: In vitro antibacterial activity against Listeria monocytogenes; format: functional
Morganella morganii = experiment: In vitro antibacterial activity against Morganella morganii; format: functional
Pseudomonas aeruginosa [11] = experiment: In vitro antibacterial activity against Pseudomonas aeruginosa VR5; format: functional
Proteus vulgaris = experiment: In vitro antibacterial activity against Proteus vulgaris; format: functional
Providencia stuartii = experiment: In vitro antibacterial activity against Providencia stuartii; format: functional
Providencia rettgeri = experiment: In vitro antibacterial activity against Providencia rettgerii; format: functional
Proteus mirabilis = experiment: In vitro antibacterial activity against Proteus mirabilis; format: functional
Pseudomonas aeruginosa [12] = experiment: In vitro antibacterial activity against Pseudomonas aeruginosa; format: functional
Pseudomonas aeruginosa [13] = experiment: In vitro antibacterial activity against Pseudomonas aeruginosa ATCC 27853; format: functional
Pseudomonas aeruginosa [14] = experiment: In vitro antibacterial activity against Pseudomonas aeruginosa G242; format: functional
[15] = system: Staphylococcus epidermidis; experiment: In vitro antibacterial activity against Staphylococcus epidermidis; format: functional
Staphylococcus aureus [16] = experiment: In vitro antibacterial activity against Staphylococcus aureus MR; format: functional
Staphylococcus aureus [17] = experiment: In vitro antibacterial activity against Staphylococcus aureus MS; format: functional
Streptococcus agalactiae = experiment: In vitro antibacterial activity against Streptococcus agalactiae B; format: functional
Staphylococcus aureus [18] = experiment: In vitro antibacterial activity against Staphylococcus aureus ATCC 25923; format: functional
Staphylococcus aureus [19] = experiment: In vitro antibacterial activity against Staphylococcus aureus ATCC 29213; format: functional
Staphylococcus aureus [20] = experiment: In vitro antibacterial activity against Staphylococcus aureus MR09; format: functional
Staphylococcus aureus [21] = experiment: In vitro antibacterial activity against Staphylococcus aureus MR13; format: functional
Streptococcus pneumoniae = experiment: In vitro antibacterial activity against Streptococcus pneumoniae; format: functional
Yersinia sp. = experiment: In vitro antibacterial activity against Yersinia species; format: functional, yersinia spp; settings: Yersinia sp. (in: enterobacteria)
[22] = system: Stenotrophomonas maltophilia; experiment: In vitro antibacterial activity against Xanthomonas maltophilia; format: functional
Streptococcus pyogenes = experiment: In vitro antibacterial activity against Streptococcus pyogenes A; format: functional

What does the source list for `C[C@@H](O)[C@H]1C(=O)N2C(C(=O)O)=C(CN(C)CC(N)=O)SC12` (stereo partly drawn)?
MIC90 (Aeromonas sp.): 1 µg/mL (≈ 3.17 µM); MIC90 [1]: 16 µg/mL (≈ 50.7 µM); MIC90 (Bacteroides fragilis): 2 µg/mL (≈ 6.34 µM); MIC90 (Moraxella catarrhalis): 0.25 µg/mL (≈ 0.793 µM); MIC90 (Clostridium perfringens): 0.5 µg/mL (≈ 1.59 µM); MIC90 (Citrobacter freundii): 1 µg/mL (≈ 3.17 µM); MIC90 (Enterococcus faecalis [2]): 8 µg/mL (≈ 25.4 µM); MIC90 (Enterococcus faecium): > 64 µg/mL; MIC (Enterococcus faecalis [3]): 4 µg/mL (≈ 12.7 µM); MIC90 (Escherichia coli [4]): 0.25 µg/mL (≈ 0.793 µM); MIC (Escherichia coli [5]): 0.25 µg/mL (≈ 0.793 µM); MIC (Escherichia coli [6]): 0.25 µg/mL (≈ 0.793 µM); MIC (Escherichia coli [7]): 0.25 µg/mL (≈ 0.793 µM); MIC (Escherichia coli [8]): 0.5 µg/mL (≈ 1.59 µM); MIC (Escherichia coli [9]): 0.25 µg/mL (≈ 0.793 µM); MIC (Escherichia coli [10]): 0.5 µg/mL (≈ 1.59 µM); MIC90 (Klebsiella aerogenes): 2 µg/mL (≈ 6.34 µM); MIC90 (Haemophilus influenzae): 2 µg/mL (≈ 6.34 µM); MIC90 (Klebsiella pneumoniae): 0.5 µg/mL (≈ 1.59 µM); MIC90 (Listeria monocytogenes): 0.5 µg/mL (≈ 1.59 µM); MIC90 (Morganella morganii): 2 µg/mL (≈ 6.34 µM); MIC (Pseudomonas aeruginosa [11]): 0.5 µg/mL (≈ 1.59 µM); MIC90 (Proteus vulgaris): 2 µg/mL (≈ 6.34 µM); MIC90 (Providencia stuartii): 2 µg/mL (≈ 6.34 µM); MIC90 (Providencia rettgeri): 2 µg/mL (≈ 6.34 µM); MIC90 (Proteus mirabilis): 1 µg/mL (≈ 3.17 µM); MIC90 (Pseudomonas aeruginosa [12]): > 64 µg/mL; MIC (Pseudomonas aeruginosa [13]): > 32 µg/mL; MIC (Pseudomonas aeruginosa [14]): 4 µg/mL (≈ 12.7 µM); MIC90 [15]: 0.015 µg/mL (≈ 0.0476 µM); MIC90 (Staphylococcus aureus [16]): 4 µg/mL (≈ 12.7 µM); MIC90 (Staphylococcus aureus [17]): 0.0075 µg/mL (≈ 0.0238 µM); MIC90 (Streptococcus agalactiae): 0.06 µg/mL (≈ 0.19 µM); MIC (Staphylococcus aureus [18]): < 0.03 µg/mL; MIC (Staphylococcus aureus [19]): 0.06 µg/mL (≈ 0.19 µM); MIC (Staphylococcus aureus [20]): 1 µg/mL (≈ 3.17 µM); MIC (Staphylococcus aureus [21]): 0.06 µg/mL (≈ 0.19 µM); MIC90 (Streptococcus pneumoniae): 0.06 µg/mL (≈ 0.19 µM); MIC90 (Yersinia sp.): 0.5 µg/mL (≈ 1.59 µM); MIC90 [22]: > 64 µg/mL; MIC90 (Streptococcus pyogenes): 0.06 µg/mL (≈ 0.19 µM)

`C[C@@H](O)[C@H]1C(=O)N2C(C(=O)O)=C(CSC(=S)N(C)CC(N)=O)SC12` (stereo partly drawn) was tested. Which MIC (Enterococcus faecalis [3]) did it give?
Its MIC is 8 µg/mL (≈ 20.4 µM).

What about the MIC (Escherichia coli [5]) of the same compound?
Its MIC is 8 µg/mL (≈ 20.4 µM).

And the MIC (Escherichia coli [6])?
Its MIC is 0.5 µg/mL (≈ 1.28 µM).

What about the MIC (Escherichia coli [7]) of the same compound?
The MIC was 16 µg/mL (≈ 40.9 µM).

And the MIC (Escherichia coli [8])?
The MIC was 16 µg/mL (≈ 40.9 µM).

And the MIC (Escherichia coli [9])?
Its MIC is 8 µg/mL (≈ 20.4 µM).

What about the MIC (Escherichia coli [10]) of the same compound?
Its MIC is 8 µg/mL (≈ 20.4 µM).

What about the MIC (Pseudomonas aeruginosa [11]) of the same compound?
The MIC was 4 µg/mL (≈ 10.2 µM).

What about the MIC (Pseudomonas aeruginosa [13]) of the same compound?
The MIC was over 32 µg/mL.

And the MIC (Pseudomonas aeruginosa [14])?
Its MIC is 8 µg/mL (≈ 20.4 µM).

And the MIC (Staphylococcus aureus [18])?
The MIC was 0.12 µg/mL (≈ 0.307 µM).

And the MIC (Staphylococcus aureus [19])?
The MIC was 0.12 µg/mL (≈ 0.307 µM).

What about the MIC (Staphylococcus aureus [20]) of the same compound?
The MIC was 2 µg/mL (≈ 5.11 µM).

And the MIC (Staphylococcus aureus [21])?
Its MIC is 0.03 µg/mL (≈ 0.0766 µM).

What does the source list for `C[C@@H](O)[C@H]1C(=O)N2C(C(=O)O)=C(CN(C)CC(=O)N(C)C)SC12` (stereo partly drawn)?
MIC (Enterococcus faecalis [3]): 8 µg/mL (≈ 23.3 µM); MIC (Escherichia coli [5]): 0.5 µg/mL (≈ 1.46 µM); MIC (Escherichia coli [6]): 1 µg/mL (≈ 2.91 µM); MIC (Escherichia coli [7]): 0.5 µg/mL (≈ 1.46 µM); MIC (Escherichia coli [8]): 1 µg/mL (≈ 2.91 µM); MIC (Escherichia coli [9]): 1 µg/mL (≈ 2.91 µM); MIC (Escherichia coli [10]): 1 µg/mL (≈ 2.91 µM); MIC (Pseudomonas aeruginosa [11]): 4 µg/mL (≈ 11.6 µM); MIC (Pseudomonas aeruginosa [13]): > 32 µg/mL; MIC (Pseudomonas aeruginosa [14]): 0.5 µg/mL (≈ 1.46 µM); MIC (Staphylococcus aureus [18]): 0.12 µg/mL (≈ 0.349 µM); MIC (Staphylococcus aureus [19]): 0.25 µg/mL (≈ 0.728 µM); MIC (Staphylococcus aureus [20]): 4 µg/mL (≈ 11.6 µM); MIC (Staphylococcus aureus [21]): 0.25 µg/mL (≈ 0.728 µM)

Which results are given for `CCCCOC(=O)CN(C)CC1=C(C(=O)O)N2C(=O)[C@H]([C@@H](C)O)C2S1` (stereo partly drawn)?
MIC (Enterococcus faecalis [3]): 8 µg/mL (≈ 21.5 µM); MIC (Escherichia coli [5]): 32 µg/mL (≈ 85.9 µM); MIC (Escherichia coli [6]): 1 µg/mL (≈ 2.68 µM); MIC (Escherichia coli [7]): > 32 µg/mL; MIC (Escherichia coli [8]): > 32 µg/mL; MIC (Escherichia coli [9]): > 32 µg/mL; MIC (Escherichia coli [10]): > 32 µg/mL; MIC (Pseudomonas aeruginosa [11]): > 32 µg/mL; MIC (Pseudomonas aeruginosa [13]): > 32 µg/mL; MIC (Pseudomonas aeruginosa [14]): > 32 µg/mL; MIC (Staphylococcus aureus [18]): 0.25 µg/mL (≈ 0.671 µM); MIC (Staphylococcus aureus [19]): 0.5 µg/mL (≈ 1.34 µM); MIC (Staphylococcus aureus [20]): 16 µg/mL (≈ 43 µM); MIC (Staphylococcus aureus [21]): 0.5 µg/mL (≈ 1.34 µM)
